Experiments:
Cells [1] = assay: MTT reduction assay (cell survival and toxicity); type: cell-based; settings: 1, 10, 50, 100 μM for 48 to 66 hours, compared to vehicle
Protocol: Cell Survival and Toxicity Assay. The MTT (3-(4,5-dimethylthiazol-2-yl)-2,5-diphenyltetrazolium bromide) assay, which is widely used to measure cell proliferation and to screen for anticancer drugs, was used for assessing cell viability. Cells were treated with a range of ABAD compounds at 1, 10, 50, and 100 μM for 48 hours and then subjected to MTT reduction assay following the manufacture's instruction.
(§1) Effect of ABAD Inhibitor on Cell Survival and Toxicity. The effect of ABAD inhibitors on cell viability and toxicity was assessed using MTT reduction assay and trypan blue exclusion, which are widely used to assess cell survival and toxicity and to screen for drugs toxicity. Cells were treated with a range of concentrations of ABAD compound (4 and 8) at 1, 10, 50, 100 μM for 48 to 66 hours.

Cells [2] = assay: Trypan blue dye exclusion (cell viability and toxicity); type: cell-based; settings: 1, 10, 50, 100 μM for 48 to 66 hours, compared to vehicle
Protocol: The trypan blue dye exclusion is commonly used for measuring cell viability and toxicity. 48-66 hours after treatment of ABAD compounds, the trypan blue exclusion experiments were performed. In brief, cells plated in 96-well plates were washed with the balanced salt solution (Hanks-Balanced Salts/HESS) once, then replaced with HBSS including trypan blue solution to the final concentration of 0.2% (Sigma-Aldrich, St. Louis, Mo.), and mixed thoroughly. After standing at room temperature for 5 minutes, the cells were washed with HBSS again and then maintained in the well with HBSS. Both the stained and unstained cells in each well were counted under a microscope (Nikon E400). The calculated percentage of unstained cells represented the percentage of viable cells. Cell viability(%)=total viable cells (unstained)/total cells (stained and unstained)×100.
as §1

mAPP mice = assay: Morris water maze learning and memory in AD transgenic mice; type: in vivo; settings: for learning memory: i.p. injection; for swim strategy used to locate the hidden platform: representative swim paths, mAPP mice; for latency to find the hidden platform: treated AD mice compared to untreated AD mice; for number of crossings at the target location / percent of time spent in the target quadrant: treated mAPP mice vs untreated mAPP mice, probe trial
Protocol: Wild-type mice (Non Tg) were also administered Compound 8 (n=5) and vehicle (n=5). Each mouse was given four 60-second trials per day for six consecutive days to find the hidden platform in a Morris water maze.
Wild-type mice were also administered Compound 8 […]. Each mouse was given four 60-second trials per day for seven consecutive days to find the hidden platform in a Morris water maze.
Each mouse was given four 60-second trials per day for six consecutive days to find the hidden platform in a Morris water maze.
In addition, the effect of Compounds 4 and 8 on learning and memory of Alzheimer's Disease (AD) transgenic mice was evaluated. Six month and 9-14 month-old transgenic mice overexpressing a mutated form of the human amyloid precursor protein (mAPP mice) and their wild-type (non Tg) littermates were used in this study. […] Moreover, performance in a spatial MWM trial was evaluated using crossings over the platform area (an index of memory precision; Morris (1984) J. Neurosci. Methods 11:47-60), percent of time spent in target quadrant (an index of memory retrieval; Morris (1984) J. Neurosci. Methods 11:47-60), and swim paths.

Row | SMILES | MTT reduction (Cells [1]) | increased percentage of trypan blue-positive cells (Cells [2]) | learning memory (mAPP mice; 6-months old mAPP mice) | learning memory (mAPP mice; 9-14-months old mAPP mice) | swim strategy used to locate the hidden platform (mAPP mice) | latency to find the hidden platform (mAPP mice) | number of crossings at the target location (mAPP mice) | percent of time spent in the target quadrant (mAPP mice) | learning memory (mAPP mice; 9-months old mAPP mice)
1 | COc1ccc2nc(N[C@@H](c3ccc(O)cc3)P(=O)(OC)OC)sc2c1 (racemic) [Compound 8, Dimethyl ((4-hydroxyphenyl)((6-methoxybenzo[d]thiazol-2-yl)amino)methyl)phosphonate] | did not exhibit decreased MTT reduction | did not exhibit | improves learning memory | improves learning memory | improvement in the swim strategy | significantly shorter latency | significantly more | significantly more | –
2 | COC(=O)c1cc([C@H](Nc2nc3ccc(OC)cc3s2)P(=O)(OC)OC)ccc1O [Compound 4, Methyl 5-((dimethoxyphosphoryl)((6-methoxybenzo[d]thiazol-2-yl)amino)methyl)-2-hydroxybenzoate] | did not exhibit decreased MTT reduction | did not exhibit | – | – | improvement in the swim strategy | significantly shorter latency | significantly more | significantly more | improves learning memory
